Assay results from patent publication EP1897937A1, “Method of culturing NPCs” (NeuroProgen GmbH Leipzig, priority 2006, dated 2008).

How the values were obtained:
[1] = tested on: hmNPCs; assay: Dopaminergic differentiation: TH protein expression by Western blot; format: cell-based, human
Method: To determine long-term proliferation, hmNPCs were plated and expanded for 2 passages with or without addition of various agents (see below) to the custom expansion media containing the growth factors EGF and FGF2. Different fetal midbrain tissues were included in this study. At the end of the proliferation period, differentiation of hmNPCs was induced via replacement of expansion media with mitogen-free media containing 1% FCS, 5 µM forskoline (Sigma-Aldrich Chemie GmbH Munich, Germany), and 100 pg/ml IL-1β (Sigma). The differentiation and expansion media were supplemented with different drugs as appropriate. Prior to immunocytochemistry or protein extraction, hmNPCs were allowed to differentiate for 1 week. To determine short-term proliferation via Ki67 immunostaining, the cells were seeded into 24-well plates (70,000 cells/well) and left overnight to rest. P2 receptor agonists (ATP, UTP, ATP + UTP, ADP, ADPβS) were supplied daily for 5 consecutive days. Ki67/nestin double-positive cells were counted in 8 randomly selected fields of nucleotide-treated or untreated samples. For the assessment of MAPK phosphorylation the cells were kept free of mitogens for 2 d prior to addition of the MEK-inhibitor in expansion media. In addition, the MEK-inhibitor was added during the differentiation period 15 min before UTP administration.
UTP, UDP, ATP, ADP, ADPβS and suramin were purchased from Sigma (Sigma-Aldrich Chemie GmbH Munich, Germany). UTP and UDP were applied at different concentrations (1 µM, 10 µM, 100 µM), ATP at 100 µM, ADP at 100 µM, and ADPβS at100 µM. During expansion of the cells, the nucleotides were renewed once a week with every media change, unless otherwise stated. They were applied once at the beginning of the differentiation period. The P2 receptor antagonist suramin (10 µM) was added to expansion media 30 min prior to addition of UTP (100 µM). The stock solution of the MEK1/2 inhibitor U0126 (Promega Corporation, Mannheim, Germany) was prepared in dimethyl sulfoxide (DMSO) at a concentration of 10 mM. The stock solution was then diluted in 0.1 M PBS to obtain a concentration of 1 mM. MEK inhibitor (final concentration 10 µM) was added to mitogen-free expansion media, 15 min before UTP treatment (1 µM) of hmNPCs.
In order to prepare protein extracts, hmNPCs were collected, washed with ice-cold PBS and lysed in buffer [10 mM HEPES-KOH (pH 7.9), 10 mM KCI, 1.5 mM MgCl2, 0.1% NP-40], supplemented with protease inhibitor cocktail (Roche). After a brief centrifugation at 4°C/10 000×g, protein concentrations and protein yield from extracts were determined using the Bradford method (Bio-Rad, Hercules, CA, USA). To preserve the phosphorylation state of proteins, extracts for the MAPK experiment were obtained using the PhosphoSafe™ extraction reagent containing phophatase inhibitors (Novagen). […] Membranes were blocked with 5% (wt/vol) nonfat dry milk in PBS-T (PBS, 0.1% (vol/vol) Tween 20) for 2 h at room temperature and subsequently incubated with the desired primary antibody (diluted in PBS containing 5% non-fat milk and 0.1% Tween 20) overnight at 4 °C with gentle agitation. The membrane was incubated with horseradish peroxidase-coupled secondary antibody for 1 h at room temperature. Chemiluminescence detection was performed by incubating the membranes with SuperSignal-Dura substrate (Pierce Biotechnology, Rockford, U.S.A) followed by analysis on a CCD cooling camera (Fuji LAS-1000plus). The chemiluminescence was quantified using the AIDA, two-dimensional densitometry software (Raytest lsotopenmeb, Straubenhardt, Germany).

[2] = tested on: hmNPCs; assay: Patch-clamp of voltage-gated potassium and sodium channels in differentiated cells; format: cell-based, human; conditions: 100 µM; differentiation for 3 weeks
Method: Patch-clamp analyses of hmNPCs was carried out after in vitro differentiation for 3 weeks with or without 100 µM UTP at room temperature using an inverted microscope DMIL (Leica, Bensheim, Germany) and an EPC-9 amplifier (HEKA, Lambrecht, Germany). Recordings of voltage-gated potassium and sodium channels were obtained in the whole-cell voltage-clamp mode by stepwise depolarisations with increasing amplitudes from the holding potential of - 70mV to 50mV in steps of 10mV. Ligand-gated P2X-channels were investigated in the whole-cell voltage-clamp mode by rapid application of 300 µM ADP, ATP, and UTP with a SF-77B perfusion fast-step system (Warner Instruments Inc., Hamden, USA). Series resistance values were continuously measured during all recordings. The external bath solution contained (in mM): 142 NaCl, 1 CaCl2, 8 KCI, 6 MgCl2, 10 Glucose, and 10 HEPES (pH 7.4; 320 mOsm). Micropipettes were formed from thin-walled borosilicate glass (Science Products, Hofheim, Germany) with a Flaming Brown electrode puller P-97 (Sutter Instrument Co., Novato, USA) and a Micro Forge (Narishige, Tokio, Japan). […] Whole cell currents were low-pass filtered at 2-5 kHz, digitized at 10 kHz, and analyzed using PulseFit software (HEKA, Lambrecht, Germany) and Prism 4 (GraphPad Software Inc, San Diego, USA). Numerical data were expressed as mean ± SEM. […]

O=c1ccn([C@@H]2O[C@H](COP(=O)(O)OP(=O)(O)OP(=O)(O)O)[C@@H](O)[C@H]2O)c(=O)[nH]1 [UTP, uridine 5'-triphosphate]
TH expression ([1]; 1 µM during 2 weeks of expansion, then 100 µM during 1 week of differentiation): 529 ± 20% | expression of TH ([1]; 100 µM, one week of differentiation): increased | activity at 100 µM ([1]; Homo sapiens, 100 µM, long-term treatment, read-out: TH protein expression in Western blots as compared to controls): 319 ± 5% | maximal potassium and sodium current amplitudes, treated vs untreated [2]: no significant difference
